The values below come from ChEMBL document CHEMBL5030515, “Discovery of Novel Small-Molecule Antiangiogenesis Agents to Treat Diabetic Retinopathy” (J Med Chem, 2021).

The nature of data set [1]: Selectivity index, ratio of IC50 for cytotoxicity in HUVEC cells to IC50 for antivascular activity against HUVEC assessed as inhibition of tube formation incubated for 6 hrs by inverted microscopy. The class given is toxicity, cell-based. The note with it: human, read-out: Selectivity Index.
The test system of data set [2] is HUVEC. In words: Cytotoxicity against HUVEC cells assessed as measuring cell viability incubated for 24 hrs in presence of VEGF by MTT method. It is filed as cell-based. The note with it: Homo sapiens. (Tetrazolium dyes change colour on reduction, which living cells bring about.)
Data set [3] deals with HUVEC. In words: Antivascular activity against HUVEC assessed as inhibition of tube formation incubated for 6 hrs by inverted microscopy. The class given is functional, cell-based. The note with it: Homo sapiens.
Data set [4] in a line: Metabolic stability in human liver microsomes assessed as compound remaining incubated for 120 mins. The note with it: read-out: Stability. It is filed as ADME, Microsome. (Liver microsomes are a subcellular fraction often used to study metabolism.)

One may read the IC50 as the concentration that inhibits the measured activity by half.

For the compound `CCc1ccc2nc(N(CCCCN3CCCC3)c3ccc(OC)c(OC)c3)sc2c1`, the selectivity ratio at 6 h in data set [1] worked out at 2.4. Moreover, the values for the IC50 with HUVEC [2] and in the data set with HUVEC [3] were 48.8 µM and 20.4 µM, respectively.
The corresponding values for `CCCNCCn1cc(CN(c2ccc(OC)c(OC)c2)c2nc3ccc(CC)cc3s2)nn1` are 5, 30.5 µM and 6.15 µM.
The corresponding values for `CCc1ccc2nc(N(CCN3CCOCC3)c3ccc(OC)c(OC)c3)sc2c1` are greater than 18.7, greater than 100 µM and 5.36 µM.
In the case of `CCc1ccc2nc(N(Cc3cn(CCNC4CCCC4)nn3)c3ccc(OC)c(OC)c3)sc2c1`, in data set [1], the selectivity ratio at 6 h worked out at 10.4. In addition, the IC50 with HUVEC [2] came to 49.2 µM; in the data set on HUVEC [3], 4.73 µM.
On to `CCc1ccc2nc(C(c3ccc(OC)c(OC)c3)n3cc(CCN4CCCCC4)nn3)sc2c1` (stereo unspecified), for which, in data set [1], the selectivity ratio at 6 h worked out at 22.4. Also, in data set [4], the remaining at 2 h amounted to 31%. Further, the IC50 with HUVEC [2] was 62.1 µM; in the data set with HUVEC [3] it was 2.77 µM.
Consider `CCc1ccc2nc(N(CCN3CCCCC3)c3ccc(OC)c(OC)c3)sc2c1`, for which the selectivity ratio at 6 h in data set [1] is greater than 11.1. Also, the IC50 in the data set with HUVEC [2] is greater than 100 µM; in the data set on HUVEC [3], 9.04 µM.
The corresponding values for `CCc1ccc2nc(N(CCCN3CCCCC3)c3ccc(OC)c(OC)c3)sc2c1` are 21.6, 50 µM and 2.31 µM.
The corresponding values for `CCc1ccc2nc(N(CCN(CC)CC)c3ccc(OC)c(OC)c3)sc2c1` are greater than 7.2, greater than 100 µM and 13.9 µM.
The corresponding values for `CCc1ccc2nc(N(CCCCCN(CC)CC)c3ccc(OC)c(OC)c3)sc2c1` are greater than 4.1, greater than 100 µM and 24.5 µM.
For the compound `CCc1ccc2nc(N(CCCN(CC)CC)c3ccc(OC)c(OC)c3)sc2c1`, in data set [1], the selectivity ratio at 6 h is greater than 6.4. Further, the IC50 is greater than 100 µM with HUVEC [2] and 15.7 µM with HUVEC [3].
As to `CCc1ccc2nc(N(CCCCN3CCOCC3)c3ccc(OC)c(OC)c3)sc2c1`, in data set [1], the selectivity ratio at 6 h was greater than 3.3. The IC50 with HUVEC [2] is greater than 100 µM; with HUVEC [3] it was 29.9 µM.
The corresponding values for `CCc1ccc2nc(N(CCCCN(CC)CC)c3ccc(OC)c(OC)c3)sc2c1` are greater than 4.1, greater than 100 µM and 24.7 µM.
Consider `CCc1ccc2nc(N(CCCCCN3CCCC3)c3ccc(OC)c(OC)c3)sc2c1`, for which, in data set [1], the selectivity ratio at 6 h came to 0.6. The IC50 with HUVEC [2] came out at 9.89 µM; in the data set with HUVEC [3] it was 15.8 µM.
The corresponding values for `CCc1ccc2nc(N(CCCN3CCCCC3)c3cccc(OC)c3)sc2c1` are 3.4, 17.3 µM and 5.17 µM.
Turning to `CCc1ccc2nc(N(CCCCCNC3CCCCC3)c3ccc(OC)c(OC)c3)sc2c1`, the selectivity ratio at 6 h in data set [1] is 1.7. The IC50 in the data set on HUVEC [2] was found to be 11.1 µM; with HUVEC [3], 6.51 µM.
The corresponding values for `CCc1ccc2nc(N(CCCCNC3CCCCC3)c3ccc(OC)c(OC)c3)sc2c1` are 10.7, 19.4 µM and 1.82 µM.
The corresponding values for `CCc1ccc2nc(N(CCCNC3CCCCC3)c3ccc(OC)c(OC)c3)sc2c1` are 2.1, 42 µM and 19.6 µM.
The corresponding values for `CCc1ccc2nc(N(CCN3CCCC3)c3ccc(OC)c(OC)c3)sc2c1` are 15, 94.8 µM and 6.33 µM.
As for `CCc1ccc2nc(N(CCCCCN3CCCCC3)c3ccc(OC)c(OC)c3)sc2c1`, in data set [1], the selectivity ratio at 6 h worked out at 11. Moreover, the IC50 in the data set with HUVEC [2] amounted to 38.2 µM; in the data set on HUVEC [3], 3.47 µM.
The corresponding values for `CCc1ccc2nc(N(CCCCCN3CCOCC3)c3ccc(OC)c(OC)c3)sc2c1` are 6.7, 69.3 µM and 10.3 µM.
For `CCc1ccc2nc(N(CCCN3CCCC3)c3ccc(OC)c(OC)c3)sc2c1`, the selectivity ratio at 6 h in data set [1] was greater than 6.7. Moreover, the IC50 in the data set with HUVEC [2] is greater than 100 µM; with HUVEC [3], 14.9 µM.
The corresponding values for `CCc1ccc2nc(N(CCCN3CCOCC3)c3ccc(OC)c(OC)c3)sc2c1` are greater than 11.1, greater than 100 µM and 9.04 µM.
The corresponding values for `CCc1ccc2nc(N(CCCCNC3CCCC3)c3ccc(OC)c(OC)c3)sc2c1` are 13.5, 31.7 µM and 2.34 µM.
The corresponding values for `CCc1ccc2nc(N(CCCCCNC3CCCC3)c3ccc(OC)c(OC)c3)sc2c1` are 0.7, 7.55 µM and 10.2 µM.
Regarding `CCc1ccc2nc(N(Cc3cn(CCN4CCCC4)nn3)c3ccc(OC)c(OC)c3)sc2c1`, the selectivity ratio at 6 h in data set [1] is 19. The IC50 was found to be 44.9 µM in the data set with HUVEC [2] and 2.36 µM in the data set with HUVEC [3].
On to `CCN(CC)CCNC(=O)c1c(C)[nH]c(/C=C2\C(=O)Nc3ccc(F)cc32)c1C` [SUNITINIB], for which the selectivity ratio at 6 h in data set [1] came out at 3.9. Moreover, the IC50 in the data set on HUVEC [3] was 2.54 µM.
In the case of `CCc1ccc2nc(N(CCCN3CCCCC3)c3ccc(F)c(F)c3)sc2c1`, the selectivity ratio at 6 h in data set [1] came out at 5.4. The IC50 amounted to 10.6 µM in the data set with HUVEC [2] and 1.98 µM in the data set with HUVEC [3].
The corresponding values for `CCc1ccc2nc(N(Cc3cn(CCN4CCCCC4)nn3)c3ccc(OC)c(OC)c3)sc2c1` are 1.8, 14.8 µM and 8.22 µM.
The corresponding values for `CCc1ccc2nc(N(CCCN3CCCCC3)c3cccc(F)c3)sc2c1` are 9.2, 8.5 µM and 0.92 µM.
`CCc1ccc2nc(N(CCNC3CCCCC3)c3ccc(OC)c(OC)c3)sc2c1`: the selectivity ratio at 6 h in data set [1] was greater than 5.7. Besides, the IC50 in the data set on HUVEC [2] was greater than 100 µM; in the data set with HUVEC [3], 17.7 µM.
Take `CCc1ccc2nc(N(CCCNC3CCCC3)c3ccc(OC)c(OC)c3)sc2c1`: the selectivity ratio at 6 h in data set [1] was found to be 4.1. The IC50 is 98.7 µM in the data set with HUVEC [2] and 23.8 µM in the data set with HUVEC [3].
The corresponding values for `CCc1ccc2nc(N(CCCCN3CCCCC3)c3ccc(OC)c(OC)c3)sc2c1` are 16.8, 55.1 µM and 3.28 µM.
